Measured values as given in patent publication US20230413819A1, “METHODS FOR CONTROLLING FLEA AND TICK INFESTATIONS IN A MAMMAL” (In the Bowl Animal Health, Inc., priority 2021, published 2023).
“And” between values parts separate entries of the source, which are not always exact repeats. Identical values can stand only once. Like-named read-outs stand apart in the source and are kept apart here.

Experiments:
[1] = Plasma concentration of mivorilaner, 0.75 mg/kg daily oral (Examples 4 and 10); format: in vivo, dogs
Description: (§1) Each dog in the treatment group is to receive by mouth a liquid formulation of isoxazoline. The dosage of 0.75 mg/kg is to be administered to the dogs on each of days 0-29.
Dogs in the control group are not to receive isoxazoline or any other tick control treatment. Each dog in the treatment group is to be offered its daily ration (dry food) and the individual doses of liquid formulation are to be administered after the individual dog has eaten at least 25% of its total daily ration. After receiving the dose of isoxazoline, the dogs are to be allowed to continue eating. This mimics incorporating the isoxazoline in feed. Each dog in the treatment group and the control group is to be experimentally infested with 50 adult ticks on test days 5, 12, 19, 28 and 35. Comb counts for live and moribund attached ticks are to be conducted on days 7, 14, 21, 30 and 37.
Dogs in the control group are not to receive isoxazoline or any other flea control treatment. Each dog in the treatment group is to be offered its daily ration (dry food) and the individual doses of liquid formulation are to be administered after the individual dog has eaten at least 25% of its total daily ration. After receiving the dose of isoxazoline, the dogs are to be allowed to continue eating. This mimics incorporating the isoxazoline in feed. Each dog in the treatment group and the control group is to be experimentally infested with 100 unfed adult fleas on test days 2, 5, 12, 20 and 35. Comb counts for live adult fleas are to be conducted on days 4, 7, 14, 21 and 37.

[2] = as above; format: in vivo, dogs; conditions: dog, 0.75 mg/kg/day
Ctenocephalides felis = test: Efficacy of isoxazoline (mivorilaner) per os to dogs against Ctenocephalides felis (Example 10); format: in vivo; conditions: 0.75 mg/kg/day oral
Description: Methods: A pool of 14 dogs are to be preliminarily infested with ˜100 unfed adult C. felis in order to identify dogs that can suitably sustain a reliable infestation rate, defined as approximately 50% fleas being live at the end of a 48-hour period. The 12 dogs with the highest live flea counts are to be selected for inclusion in the study. The dogs are to be divided into a control group and a treatment group.
The dogs are to be housed individually during the study period and are to be fed a commercial dry dog food ration with ad libitum access to water.
as §1
Dogs in the control group are not to receive isoxazoline or any other flea control treatment. Each dog in the treatment group is to be offered its daily ration (dry food) and the individual doses of liquid formulation are to be administered after the individual dog has eaten at least 25% of its total daily ration. After receiving the dose of isoxazoline, the dogs are to be allowed to continue eating. This mimics incorporating the isoxazoline in feed. […]
Results: referring now to FIG. 16, the arithmetic mean efficacy in reduction of live adult flea counts is shown. The Percent Efficacy is calculated according to the formula: […]

[3] = Average plasma concentration of mivorilaner, medicated daily feed (Example 9); format: in vivo, dogs
Description: Each dog in a treatment group (test groups 2-4) is to receive a medicated daily feed from study days 0-49. The medicated daily feed is to be offered to the dogs for 1 hour on each of days 0-49 according to test groups listed in TABLE 11.

[4] = Average plasma concentration of mivorilaner, various daily oral doses (Examples 5 and 11); format: in vivo, dogs; conditions: dog, fed; for concentration at 0 h: 0 h after initial dose; for concentration at 72 h: 72 h after initial dose; for concentration at 120 h: 120 h after initial dose; for concentration at 168 h: 168 h after initial dose; for concentration at 336 h: 336 h after initial dose; for concentration at 504 h: 504 h after initial dose; for concentration at 720 h: 720 h after initial dose; for concentration at 888 h: 888 h after initial dose; for concentration at 1056 h: 1056 h after initial dose; for concentration at 1224 h: 1224 h after initial dose; for concentration at 1440 h: 1440 h after initial dose

## O=C(CNC(=O)c1sc(C2=NO[C@@](c3cc(Cl)c(F)c(Cl)c3)(C(F)(F)F)C2)c2c1CCC2)NCC(F)F [mivorilaner, 3-[(5S)-5-(3,5-dichloro-4-fluorophenyl)-5-(trifluoromethyl)-4,5-dihydroisoxazol-3-yl]-N-[2-[(2,2-difluoroethyl)amino]-2-oxoethyl]-5,6-dihydro-4H-cyclopenta[c]thiophene-1-carboxamide]
[1]; 0.75 mg/kg/day oral days 0-29, Day 3, 0.75 mg/kg/day
  Mivorilaner Concentration, individual canines: 579 ng/mL and 660 ng/mL and 800 ng/mL and 798 ng/mL and 556 ng/mL and 648 ng/mL
[1]; 0.75 mg/kg/day oral days 0-29, Day 7, 0.75 mg/kg/day
  Mivorilaner Concentration, individual canines: 994 ng/mL and 1470 ng/mL and 1620 ng/mL and 1660 ng/mL and 1330 ng/mL
[1]; 0.75 mg/kg/day oral days 0-29, Day 14, 0.75 mg/kg/day
  Mivorilaner Concentration, individual canines: 1560 ng/mL and 2120 ng/mL and 2370 ng/mL and 2060 ng/mL and 1990 ng/mL and 2530 ng/mL
[1]; 0.75 mg/kg/day oral days 0-29, Day 21, 0.75 mg/kg/day
  Mivorilaner Concentration, individual canines: 2450 ng/mL and 2720 ng/mL and 2950 ng/mL and 2660 ng/mL and 2750 ng/mL and 2820 ng/mL
[1]; 0.75 mg/kg/day oral days 0-29, Day 30, 0.75 mg/kg/day
  Mivorilaner Concentration, individual canines: 2320 ng/mL and 2600 ng/mL and 2790 ng/mL and 2570 ng/mL and 2890 ng/mL
[1]; 0.75 mg/kg/day oral days 0-29, Day 37, 0.75 mg/kg/day
  Mivorilaner Concentration, individual canines: 1880 ng/mL and 2010 ng/mL and 1980 ng/mL and 1750 ng/mL and 2070 ng/mL and 2410 ng/mL
[1]; 0.75 mg/kg/day oral days 0-29, Day −1 (before first dose)
  Mivorilaner Concentration, individual canines: BLQ
[1]; dog, po, 0.75 mg/kg/day, 0.75 mg/kg/day oral days 0-29, Day 30, read-out: Mivorilaner Concentration, individual canines
  concentration at 30 day: 2890 ng/mL
[2]; 0.75 mg/kg/day oral days 0-29, Day 3, read-out: Mivorilaner Concentration, Average of 6 canines
  concentration at 3 day: 674 ng/mL
[2]; 0.75 mg/kg/day oral days 0-29, Day 3, read-out: Mivorilaner Concentration, individual canines
  concentration at 3 day: 648 ng/mL
[2]; 0.75 mg/kg/day oral days 0-29, Day 7, read-out: Mivorilaner Concentration, Average of 6 canines
  concentration at 7 day: 1450 ng/mL
[2]; 0.75 mg/kg/day oral days 0-29, Day 7, read-out: Mivorilaner Concentration, individual canines
  concentration at 7 day: 1620 ng/mL
[2]; 0.75 mg/kg/day oral days 0-29, Day 14, read-out: Mivorilaner Concentration, Average of 6 canines
  concentration at 14 day: 2100 ng/mL
[2]; 0.75 mg/kg/day oral days 0-29, Day 14, read-out: Mivorilaner Concentration, individual canines
  concentration at 14 day: 2530 ng/mL
[2]; 0.75 mg/kg/day oral days 0-29, Day 21, read-out: Mivorilaner Concentration, Average of 6 canines
  concentration at 21 day: 2720 ng/mL
[2]; 0.75 mg/kg/day oral days 0-29, Day 21, read-out: Mivorilaner Concentration, individual canines
  concentration at 21 day: 2820 ng/mL
[2]; 0.75 mg/kg/day oral days 0-29, Day 30, read-out: Mivorilaner Concentration, Average of 6 canines
  concentration at 30 day: 2630 ng/mL
[2]; 0.75 mg/kg/day oral days 0-29, Day 37, read-out: Mivorilaner Concentration, Average of 6 canines
  concentration at 37 day: 2020 ng/mL
[2]; 0.75 mg/kg/day oral days 0-29, Day 37, read-out: Mivorilaner Concentration, individual canines
  concentration at 37 day: 2410 ng/mL
Ctenocephalides felis
  day after initial administration by which the treatment is effective (reduction of live adult flea counts): ≤ 4 days
[3]; Group 2, 106 mg/kg feed (anticipated 1 mg/kg daily), 1 hr
  average plasma concentration of isoxazoline (mivorilaner): 49.98
[3]; Group 2, 106 mg/kg feed (anticipated 1 mg/kg daily), 3 hr
  average plasma concentration of isoxazoline (mivorilaner): 292.00
[3]; Group 2, 106 mg/kg feed (anticipated 1 mg/kg daily), 6 hr
  average plasma concentration of isoxazoline (mivorilaner): 539.00
[3]; Group 2, 106 mg/kg feed (anticipated 1 mg/kg daily), 10 hr
  average plasma concentration of isoxazoline (mivorilaner): 505.40
[3]; Group 2, 106 mg/kg feed (anticipated 1 mg/kg daily), 24 hr
  average plasma concentration of isoxazoline (mivorilaner): 458.60
[3]; Group 2, 106 mg/kg feed (anticipated 1 mg/kg daily), 48 hr
  average plasma concentration of isoxazoline (mivorilaner): 771.83
[3]; Group 2, 106 mg/kg feed (anticipated 1 mg/kg daily), 96 hr
  average plasma concentration of isoxazoline (mivorilaner): 1570.50
[3]; Group 2, 106 mg/kg feed (anticipated 1 mg/kg daily), 168 hr
  average plasma concentration of isoxazoline (mivorilaner): 2156.67
[3]; Group 2, 106 mg/kg feed (anticipated 1 mg/kg daily), 240 hr
  average plasma concentration of isoxazoline (mivorilaner): 3003.33
[3]; Group 2, 106 mg/kg feed (anticipated 1 mg/kg daily), 336 hr
  average plasma concentration of isoxazoline (mivorilaner): 3290.00
[3]; Group 3, 106 mg/kg feed (anticipated 1 mg/kg daily), 1 hr
  average plasma concentration of isoxazoline (mivorilaner): 40.41
[3]; Group 3, 106 mg/kg feed (anticipated 1 mg/kg daily), 3 hr
  average plasma concentration of isoxazoline (mivorilaner): 264.83
[3]; Group 3, 106 mg/kg feed (anticipated 1 mg/kg daily), 6 hr
  average plasma concentration of isoxazoline (mivorilaner): 467.50
[3]; Group 3, 106 mg/kg feed (anticipated 1 mg/kg daily), 10 hr
  average plasma concentration of isoxazoline (mivorilaner): 419.17
[3]; Group 3, 106 mg/kg feed (anticipated 1 mg/kg daily), 24 hr
  average plasma concentration of isoxazoline (mivorilaner): 435.17
[3]; Group 3, 106 mg/kg feed (anticipated 1 mg/kg daily), 48 hr
  average plasma concentration of isoxazoline (mivorilaner): 781.83
[3]; Group 3, 106 mg/kg feed (anticipated 1 mg/kg daily), 96 hr
  average plasma concentration of isoxazoline (mivorilaner): 1596.67
[3]; Group 3, 106 mg/kg feed (anticipated 1 mg/kg daily), 168 hr
  average plasma concentration of isoxazoline (mivorilaner): 2406.67
[3]; Group 3, 106 mg/kg feed (anticipated 1 mg/kg daily), 240 hr
  average plasma concentration of isoxazoline (mivorilaner): 3026.67
[3]; Group 3, 106 mg/kg feed (anticipated 1 mg/kg daily), 336 hr
  average plasma concentration of isoxazoline (mivorilaner): 3516.67
[3]; Group 4, 318 mg/kg feed (anticipated 3 mg/kg daily), 1 hr
  average plasma concentration of isoxazoline (mivorilaner): 143.75
[3]; Group 4, 318 mg/kg feed (anticipated 3 mg/kg daily), 3 hr
  average plasma concentration of isoxazoline (mivorilaner): 846.50
[3]; Group 4, 318 mg/kg feed (anticipated 3 mg/kg daily), 6 hr
  average plasma concentration of isoxazoline (mivorilaner): 1265.67
[3]; Group 4, 318 mg/kg feed (anticipated 3 mg/kg daily), 10 hr
  average plasma concentration of isoxazoline (mivorilaner): 1198.17
[3]; Group 4, 318 mg/kg feed (anticipated 3 mg/kg daily), 24 hr
  average plasma concentration of isoxazoline (mivorilaner): 1021.17
[3]; Group 4, 318 mg/kg feed (anticipated 3 mg/kg daily), 48 hr
  average plasma concentration of isoxazoline (mivorilaner): 2011.67
[3]; Group 4, 318 mg/kg feed (anticipated 3 mg/kg daily), 96 hr
  average plasma concentration of isoxazoline (mivorilaner): 3928.33
[3]; Group 4, 318 mg/kg feed (anticipated 3 mg/kg daily), 168 hr
  average plasma concentration of isoxazoline (mivorilaner): 6461.67
[3]; Group 4, 318 mg/kg feed (anticipated 3 mg/kg daily), 240 hr
  average plasma concentration of isoxazoline (mivorilaner): 8696.67
[3]; Group 4, 318 mg/kg feed (anticipated 3 mg/kg daily), 336 hr
  average plasma concentration of isoxazoline (mivorilaner): 11600.00
[4]; Group 2, 0.125 mg/kg/day oral
  concentration at 0 h: 0 ng/mL
  concentration at 72 h: 136 ng/mL
  concentration at 120 h: 213 ng/mL
  concentration at 168 h: 244 ng/mL
  concentration at 336 h: 384 ng/mL
  concentration at 504 h: 404 ng/mL
  concentration at 720 h: 420 ng/mL
  concentration at 888 h: 448 ng/mL
  concentration at 1056 h: 428 ng/mL
  concentration at 1224 h: 486 ng/mL
  concentration at 1440 h: 898 ng/mL
[4]; Group 3, 0.25 mg/kg/day oral
  concentration at 0 h: 0 ng/mL
  concentration at 72 h: 283 ng/mL
  concentration at 120 h: 450 ng/mL
  concentration at 168 h: 579 ng/mL
  concentration at 336 h: 883 ng/mL
  concentration at 504 h: 878 ng/mL
  concentration at 720 h: 1020 ng/mL
  concentration at 888 h: 1000 ng/mL
  concentration at 1056 h: 945 ng/mL
  concentration at 1224 h: 1040 ng/mL
  concentration at 1440 h: 999 ng/mL
[4]; Group 4, 0.5 mg/kg/day oral
  concentration at 0 h: 0 ng/mL
  concentration at 72 h: 474 ng/mL
  concentration at 120 h: 763 ng/mL
  concentration at 168 h: 888 ng/mL
  concentration at 336 h: 1460 ng/mL
  concentration at 504 h: 1630 ng/mL
  concentration at 720 h: 1870 ng/mL
  concentration at 888 h: 1990 ng/mL
  concentration at 1056 h: 2010 ng/mL
  concentration at 1224 h: 2320 ng/mL
  concentration at 1440 h: 2300 ng/mL
[4]; Group 5, 1.0 mg/kg/day oral
  concentration at 0 h: 0 ng/mL
  concentration at 72 h: 951 ng/mL
  concentration at 120 h: 1510 ng/mL
  concentration at 168 h: 1790 ng/mL
  concentration at 336 h: 2690 ng/mL
  concentration at 504 h: 3020 ng/mL
  concentration at 720 h: 3760 ng/mL
  concentration at 888 h: 3860 ng/mL
  concentration at 1056 h: 4260 ng/mL
  concentration at 1224 h: 4840 ng/mL
  concentration at 1440 h: 4140 ng/mL
